Reference: the supplement of paper PMC10307832

Assays:
Experiment in all cases: relative viability (nuclei count vs DMSO), 5 days (fraction); higher = more cells survive
NCI-H2023 = test system: NCI-H2023
How it was run: (§1)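 Values are medians from duplicate plates. Each reflects relative viability, defined as the nuclei count of treated wells over that of vehicle wells. Lung cancer cell lines in 1536-well plates were pin-tool dosed one day after seeding with one drug alone or with a fixed anchor-drug dose plus five library-drug doses (not always all listed) in √10 steps, then fixed, stained and imaged at 4× after 5 days.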

H3255 = test system: H3255
How it was run: as §1

NCI-H2405 = test system: NCI-H2405
How it was run: as §1

NCI-H2347 = test system: NCI-H2347
How it was run: as §1

NCI-H650 = test system: NCI-H650
How it was run: as §1

SK-LU-1 = test system: SK-LU-1
How it was run: as §1

NCI-H358 = test system: NCI-H358
How it was run: as §1

NCI-H23 = test system: NCI-H23
How it was run: as §1

NCI-H441 = test system: NCI-H441
How it was run: as §1

NCI-H1395 = test system: NCI-H1395
How it was run: as §1

NCI-H2009 = test system: NCI-H2009
How it was run: as §1

BEN = test system: BEN
How it was run: as §1

NCI-H2342 = test system: NCI-H2342
How it was run: as §1

EMC-BAC-2 = test system: EMC-BAC-2
How it was run: as §1

CAL-12T = test system: CAL-12T
How it was run: as §1

ChaGo-K-1 = test system: ChaGo-K-1
How it was run: as §1

NCI-H1650 = test system: NCI-H1650
How it was run: as §1

NCI-H1734 = test system: NCI-H1734
How it was run: as §1

SW 900 = test system: SW 900
How it was run: as §1

NCI-H522 = test system: NCI-H522
How it was run: as §1

NCI-H1944 = test system: NCI-H1944
How it was run: as §1

HCC-15 = test system: HCC-15
How it was run: as §1

LU99A = test system: LU99A
How it was run: as §1

Cc1cn(-c2cc(NC(=O)c3ccc(C)c(Nc4nccc(-c5cccnc5)n4)c3)cc(C(F)(F)F)c2)cn1 [Nilotinib] + Nc1nc2[nH]cc(CCc3ccc(C(=O)N[C@@H](CCC(=O)O)C(=O)O)cc3)c2c(=O)[nH]1 [Pemetrexed] (partner 0.2 µM)
relative viability (NCI-H2023; first compound 0.001 µM): 0.213 | relative viability (NCI-H2023; first compound 0.003162 µM): 0.264 | relative viability (NCI-H2023; first compound 0.01 µM): 0.223 | relative viability (NCI-H2023; first compound 0.03162 µM): 0.189 | relative viability (NCI-H2023; first compound 0.1 µM): 0.14 | relative viability (H3255; first compound 0.001 µM): 0.528 | relative viability (H3255; first compound 0.003162 µM): 0.671 | relative viability (H3255; first compound 0.01 µM): 0.578 | relative viability (H3255; first compound 0.03162 µM): 0.579 | relative viability (H3255; first compound 0.1 µM): 0.523 | relative viability (NCI-H2405; first compound 0.001 µM): 1.03 | relative viability (NCI-H2405; first compound 0.003162 µM): 0.91 | relative viability (NCI-H2405; first compound 0.01 µM): 0.924 | relative viability (NCI-H2405; first compound 0.03162 µM): 0.699 | relative viability (NCI-H2405; first compound 0.1 µM): 0.614 | relative viability (NCI-H2347; first compound 0.001 µM): 0.401 | relative viability (NCI-H2347; first compound 0.003162 µM): 0.384 | relative viability (NCI-H2347; first compound 0.01 µM): 0.435 | relative viability (NCI-H2347; first compound 0.03162 µM): 0.517 | relative viability (NCI-H2347; first compound 0.1 µM): 0.418 | relative viability (NCI-H650; first compound 0.001 µM): 0.887 | relative viability (NCI-H650; first compound 0.003162 µM): 0.86 | relative viability (NCI-H650; first compound 0.01 µM): 1.12 | relative viability (NCI-H650; first compound 0.03162 µM): 0.914 | relative viability (NCI-H650; first compound 0.1 µM): 0.746 | relative viability (SK-LU-1; first compound 0.001 µM): 0.867 | relative viability (SK-LU-1; first compound 0.003162 µM): 1.09 | relative viability (SK-LU-1; first compound 0.01 µM): 0.949 | relative viability (SK-LU-1; first compound 0.03162 µM): 0.524 | relative viability (SK-LU-1; first compound 0.1 µM): 0.415 | relative viability (NCI-H358; first compound 0.001 µM): 0.187 | relative viability (NCI-H358; first compound 0.003162 µM): 0.175 | relative viability (NCI-H358; first compound 0.01 µM): 0.169 | relative viability (NCI-H358; first compound 0.03162 µM): 0.144 | relative viability (NCI-H358; first compound 0.1 µM): 0.152 | relative viability (NCI-H23; first compound 0.001 µM): 0.739 | relative viability (NCI-H23; first compound 0.003162 µM): 0.553 | relative viability (NCI-H23; first compound 0.01 µM): 0.494 | relative viability (NCI-H23; first compound 0.03162 µM): 0.575 | relative viability (NCI-H23; first compound 0.1 µM): 0.368 | relative viability (NCI-H441; first compound 0.001 µM): 0.261 | relative viability (NCI-H441; first compound 0.003162 µM): 0.26 | relative viability (NCI-H441; first compound 0.01 µM): 0.225 | relative viability (NCI-H441; first compound 0.03162 µM): 0.229 | relative viability (NCI-H441; first compound 0.1 µM): 0.186 | relative viability (NCI-H1395; first compound 0.001 µM): 1 | relative viability (NCI-H1395; first compound 0.01 µM): 0.607 | relative viability (NCI-H1395; first compound 0.03162 µM): 0.642 | relative viability (NCI-H1395; first compound 0.1 µM): 0.517 | relative viability (NCI-H2009; first compound 0.001 µM): 0.926 | relative viability (NCI-H2009; first compound 0.003162 µM): 0.964 | relative viability (NCI-H2009; first compound 0.01 µM): 0.919 | relative viability (NCI-H2009; first compound 0.03162 µM): 1.06 | relative viability (NCI-H2009; first compound 0.1 µM): 0.989 | relative viability (BEN; first compound 0.001 µM): 0.868 | relative viability (BEN; first compound 0.003162 µM): 0.715 | relative viability (BEN; first compound 0.01 µM): 0.614 | relative viability (BEN; first compound 0.03162 µM): 0.772 | relative viability (BEN; first compound 0.1 µM): 0.469 | relative viability (NCI-H2342; first compound 0.001 µM): 0.718 | relative viability (NCI-H2342; first compound 0.003162 µM): 0.753 | relative viability (NCI-H2342; first compound 0.01 µM): 0.793 | relative viability (NCI-H2342; first compound 0.03162 µM): 0.718 | relative viability (NCI-H2342; first compound 0.1 µM): 0.428 | relative viability (EMC-BAC-2; first compound 0.001 µM): 0.427 | relative viability (EMC-BAC-2; first compound 0.003162 µM): 0.618 | relative viability (EMC-BAC-2; first compound 0.01 µM): 0.471 | relative viability (EMC-BAC-2; first compound 0.03162 µM): 0.46 | relative viability (EMC-BAC-2; first compound 0.1 µM): 0.437 | relative viability (CAL-12T; first compound 0.001 µM): 0.977 | relative viability (CAL-12T; first compound 0.003162 µM): 1.48 | relative viability (CAL-12T; first compound 0.01 µM): 1.34 | relative viability (CAL-12T; first compound 0.03162 µM): 0.992 | relative viability (CAL-12T; first compound 0.1 µM): 1.22 | relative viability (ChaGo-K-1; first compound 0.001 µM): 0.27 | relative viability (ChaGo-K-1; first compound 0.003162 µM): 0.244 | relative viability (ChaGo-K-1; first compound 0.01 µM): 0.228 | relative viability (ChaGo-K-1; first compound 0.03162 µM): 0.229 | relative viability (ChaGo-K-1; first compound 0.1 µM): 0.215 | relative viability (NCI-H1650; first compound 0.001 µM): 0.409 | relative viability (NCI-H1650; first compound 0.003162 µM): 0.526 | relative viability (NCI-H1650; first compound 0.01 µM): 0.39 | relative viability (NCI-H1650; first compound 0.03162 µM): 0.375 | relative viability (NCI-H1650; first compound 0.1 µM): 0.498 | relative viability (NCI-H1734; first compound 0.001 µM): 0.443 | relative viability (NCI-H1734; first compound 0.003162 µM): 0.346 | relative viability (NCI-H1734; first compound 0.01 µM): 0.364 | relative viability (NCI-H1734; first compound 0.03162 µM): 0.388 | relative viability (NCI-H1734; first compound 0.1 µM): 0.31 | relative viability (SW 900; first compound 0.003162 µM): 0.459 | relative viability (SW 900; first compound 0.01 µM): 0.38 | relative viability (SW 900; first compound 0.03162 µM): 0.239 | relative viability (SW 900; first compound 0.1 µM): 0.245 | relative viability (NCI-H522; first compound 0.01 µM): 1.21 | relative viability (NCI-H522; first compound 0.03162 µM): 0.949 | relative viability (NCI-H522; first compound 0.1 µM): 0.792 | relative viability (NCI-H1944; first compound 0.001 µM): 0.56 | relative viability (NCI-H1944; first compound 0.003162 µM): 0.519 | relative viability (NCI-H1944; first compound 0.01 µM): 0.566 | relative viability (NCI-H1944; first compound 0.03162 µM): 0.578 | relative viability (NCI-H1944; first compound 0.1 µM): 0.265 | relative viability (HCC-15; first compound 0.001 µM): 0.213 | relative viability (HCC-15; first compound 0.003162 µM): 0.205 | relative viability (HCC-15; first compound 0.01 µM): 0.204 | relative viability (HCC-15; first compound 0.03162 µM): 0.18 | relative viability (HCC-15; first compound 0.1 µM): 0.162 | relative viability (LU99A; first compound 0.001 µM): 0.158 | relative viability (LU99A; first compound 0.003162 µM): 0.202 | relative viability (LU99A; first compound 0.01 µM): 0.177 | relative viability (LU99A; first compound 0.03162 µM): 0.225 | relative viability (LU99A; first compound 0.1 µM): 0.155
